Experimental data reported in US6548549B1, “Acylaminosalicylic acid amides and their uses as pesticides” (Bayer Aktiengesellschaft, priority 1995, dated 2003).

Key:
[1] = tested on: mustard beetle larvae (Phaedon cochleariae); assay: Phaedon larvae test; assay type: in vivo; conditions: cabbage leaves dipped, active compound concentration 0.01%, after 7 days
Procedure: (§1) Phaedon Larvae Test Solvent: 7 parts by weight of dimethylformamide Emulsifier: 1 part by weight of alkylaryl polyglycol ether To produce a suitable preparation of active compound, 1 part by weight of active compound is mixed with the stated amount of solvent and the stated amount of emulsifier, and the concentrate is diluted with water to the desired concentration. Cabbage leaves (Brassica oleracea) are treated by being dipped into the preparation of the active compound of the desired concentration and are populated with mustard beetle larvae (Phaedon cochleariae) while the leaves are still moist. After the specified period of time, the destruction in % is determined. 100% means that all the beetle larvae have been killed; 0% means that none of the beetle larvae have been killed.

[2] = tested on: caterpillars of the fall armyworm Spodoptera frugiperda; assay: Spodoptera test; assay type: in vivo; conditions: cabbage leaves dipped, concentration 0.1%, after 7 days
Procedure: as §1, with “Spodoptera” for “Phaedon Larvae”, “[…]” for “weight of dimethylformamide”, “caterpillars of the fall armyworm Spodoptera frugiperda” for “mustard beetle larvae (Phaedon cochleariae)”, “activity” for “destruction”, “caterpillars” for “beetle larvae”

[3] = tested on: larvae of the green rice leafhopper (Nephotettix cincticeps); assay: Nephotettix test; assay type: in vivo; conditions: rice seedlings dipped, active compound concentration 0.001%, after 7 days
Procedure: Nephotettix Test Solvent: 7 parts by weight of dimethylformamide Emulsifier: 1 part by weight of alkylaryl polyglycol ether To produce a suitable preparation of active compound, 1 part by weight of active compound is mixed with the stated amount of solvent and the stated amount of emulsifier, and the concentrate is diluted with water to the desired concentration. Rice seedlings (Oryza sativa) are treated by being dipped into the preparation of the active compound of the desired concentration and populated with larvae of the green rice leafhopper (Nephotettix cincticeps) while the seedlings are still moist. After the specified period of time, the destruction in % is determined. 100% means that all the leafhoppers have been killed; 0% means that none of the leafhoppers have been killed.

Sphaerotheca fuliginea = assay: Sphaerotheca test (cucumber)/protective; assay type: in vivo; conditions: protective, 100 ppm active substance, evaluation 10 days after inoculation
Procedure: Sphaerotheca Test (Cucumber)/Protective Solvent: 4.7 parts by weight of acetone Emulsifier: 0.3 part by weight of alkylaryl polyglycol ether To produce a suitable preparation of active compound, 1 part by weight of active compound is mixed with the stated amounts of solvent and emulsifier, and the concentrate is diluted with water to the desired concentration. To test for protective activity, young plants are sprayed with the preparation of active compound. After the spray coating has dried on, the plants are dusted with conidia of the fungus Sphaerotheca fuliginea. The plants are then placed in a greenhouse at 23 to 24° C. and at a relative atmospheric humidity of about 75%. Evaluation is carried out 10 days after the inoculation.

Pyricularia oryzae = assay type: in vivo; conditions: rice, protective, active compound concentration 0.05%, evaluation 4 days after inoculation
[4] = tested on: Pseudocercosporella herpotrichoides; assay: Pseudocercosporella herpotrichoides test (wheat)/protective; assay type: in vivo; conditions: protective, application rate 250 g/ha, evaluation 21 days after inoculation
Procedure: Pseudocercosporella herpotrichoides Test (Wheat)/Protective Solvent: 10 parts by weight of N-methyl-pyrrolidone Emulsifier: 0.6 part by weight of alkylaryl polyglycol ether To produce a suitable preparation of active compound, 1 part by weight of active compound is mixed with the stated amounts of solvent and emulsifier, and the concentrate is diluted with water to the desired concentration. To test for protective activity, young plants are sprayed with the preparation of active compound at the rate of application shown. After the spray coating has dried on, the stem base of the plants is inoculated with spores of Pseudocercosporella herpotrichoides. […] Evaluation is carried out 21 days after the inoculation.

Botrytis cinerea = assay: Botrytis test (beans)/protective; assay type: in vivo; conditions: protective, 500 ppm active compound, lesion size 3 days after inoculation
Procedure: Botrytis Test (Beans)/Protective Solvent: 4.7 parts by weight of acetone Emulsifier: 0.3 part by weight of alkylaryl polyglycol ether To produce a suitable preparation of active compound, 1 part by weight of active compound is mixed with the stated amounts of solvent and emulsifier, and the concentrate is diluted with water to the desired concentration. To test for protective activity, young plants are sprayed with the preparation of active compound. After the spray coating has dried on, 2 small pieces of agar covered with Botrytis cinerea are placed on each leaf. The inoculated plants are then placed in a darkened humid chamber at 20° C. 3 days after the inoculation, the size of the lesions on the leaves is evaluated.

SMILES: CCc1ccc(-c2ccc(CCNC(=O)c3cccc(NC=O)c3O)cc2)cc1 [Example 47]
- destruction [1]: 100%
- destruction rate [2]: 85%

SMILES: CC(NC(=O)c1cccc(NC=O)c1O)C1CC=CCC1 (stereo not drawn) [Example 71]
- destruction [3]: 100%

SMILES: O=CNc1cccc(C(=O)Nc2ccc(Oc3cccc(C(F)(F)F)c3)cc2)c1O [Example 5]
- efficacy (Sphaerotheca fuliginea): over 80%
- efficacy (Pyricularia oryzae): over 80%
- efficacy [4]: over 80%
- efficacy (Botrytis cinerea): 90%

SMILES: O=C(Nc1ccc(-c2ccccc2)cc1)c1cccc([N+](=O)[O-])c1O [IV-a-1, 3-nitro-2-hydroxy-N-(4-phenyl-phenyl)-benzamide]
- melting point: 152 °C

SMILES: O=CNc1cccc(C(=O)Nc2ccc(Oc3ccc(Cl)cc3)c(Cl)c2)c1O [Example 4]
- efficacy (Botrytis cinerea): 90%

SMILES: CCc1ccc(C(C)NC(=O)c2cccc(NC=O)c2O)cc1 (stereo not drawn) [Example 16]
- efficacy (Botrytis cinerea): 90%

SMILES: CC(NC(=O)c1cccc(NC=O)c1O)c1ccc(F)cc1 (stereo not drawn) [Example 3, 3-formamido-2-hydroxy-N-[1-(4-fluorphenyl)-ethyl)-benzamide]
- efficacy (Botrytis cinerea): 90%

SMILES: CC(NC(=O)c1cccc([N+](=O)[O-])c1OCc1ccccc1)c1cccc(C(F)(F)F)c1 (stereo not drawn) [Example V-34]
- destruction [1]: 100%

SMILES: CC(NC(=O)c1cccc(NC=O)c1O)c1ccc(Cl)cc1Cl (stereo not drawn) [Example 15]
- efficacy (Botrytis cinerea): 90%

SMILES: COc1cccc(C(C)NC(=O)c2cccc(NC=O)c2O)c1 (stereo not drawn) [Example 10]
- efficacy (Botrytis cinerea): 90%

SMILES: O=CNc1cccc(C(=O)NCc2cccc(C(F)(F)F)c2)c1O [Example 39]
- destruction [3]: 100%

SMILES: O=CNc1cccc(C(=O)Nc2ccc(-c3ccccc3)cc2)c1O [Example 2, 3-formamido-2-hydroxy-N-(4-phenylphenyl)-benzamide]
- efficacy (Botrytis cinerea): 90%
- melting point: 190 °C

SMILES: O=CNc1cccc(C(=O)NCc2ccc(F)cc2)c1O [Example 35]
- destruction [3]: 100%
